Where two headings read alike, the source gives them in different places.
Assays:
[1] = test system: cefepime-resistant Klebsiella pneumoniae; assay: MIC in combination with cefepime for drug-resistant bacteria (Test Example 2); format: cell-based; conditions: for MIC: Klebsiella pneumoniae, with CPM 8 μg/mL
Method: (§1) The biosafety cabinet was sterilized with ultraviolet light for 30 min. Glycerol tubes were taken out of a −80° C. freezer, and streaks were gently formed in the glycerol tubes using inoculating loops. Bacteria were inoculated onto MHIIA solid plates. The plates were incubated overnight in a 37° C. incubator.
(§2) 30 μL of compound stock solution was added to column 1 of a 96-well v-bottom plate, and DMSO was added to columns 2-10. Subsequently, 15 μL was transferred from column 1 to column 2 using a pipette and well mixed gently, and then 15 μL of solution was transferred from column 2 to column 3; the serial dilution process proceeded to column 10 (200×β-lactamase inhibitor working solutions were prepared). The antibiotic was diluted with a corresponding solvent to form a 1.6 mg/mL solution.

[2] = test system: cefepime-resistant Acinetobacter baumannii; assay: as above; format: cell-based; conditions: for concentration for achieving a bacteriostatic effect where the CPM MIC is fixed at 8 μg/mL: with CPM 8 μg/mL
Method: as §1, §2

[3] = test system: cefepime-resistant Pseudomonas aeruginosa; assay: as above; format: cell-based
Method: as §1, §2

[4] = test system: cefepime-resistant Escherichia coli; assay: as above; format: cell-based; conditions: for MIC: Escherichia coli, with CPM 8 μg/mL
Method: as §1, §2

[5] = Single intravenous administration exposure, pharmacokinetics (Test Example 4); format: in vivo, ICR mice; conditions: ICR mice, single intravenous injection, plasma; for AUC(0-t) / AUC(0-inf) / Cmax / Tmax: mouse, in vivo; for AUC(0-t): read-out: AUC0-t; for AUC(0-inf): read-out: AUCinf; for Cmax: read-out: Cmax; for Tmax: read-out: Tmax
Method: The solutions were prepared on the day of administration and stored at 4° C.
Single intravenous injections were administered to ICR mice, which were grouped as follows. Blood was collected from the saphenous vein or the fundus venous plexus at 0.083 h, 0.25 h, 0.5 h, 1 h, 2 h, 4 h, 6 h and 12 h after administration (about 0.1 mL/time point). A biological analysis method was developed to determine plasma concentrations at different time points, and related pharmacokinetic parameters were calculated.

[6] = test system: cefepime-resistant Klebsiella pneumoniae expressing different types of β-lactamases; assay: microbe, parasite or virus in culture; format: cell-based; conditions: for MIC: Klebsiella pneumoniae; for MIC, Cefepime + compound (8 ug/ml): inhibitor at 8 ug/ml
Method: as §1
30 μL of compound stock solution was added to column 1 of a 96-well v-bottom plate, and DMSO was added to columns 2-10. Subsequently, 15 μL was transferred from column 1 to column 2 using a pipette and well mixed gently, and then 15 μL of solution was transferred from column 2 to column 3: the serial dilution process proceeded to column 10 (200×β-lactamase inhibitor working solutions were prepared). The antibiotic was diluted with a corresponding solvent to form a 1.6 mg/mL solution.

[7] = summary in words of Test Example 2

O=C([O-])c1c2c(cc3c1O[B-](O)(O)[C@@H]1C[C@H]31)OCCO2.[Na+].[Na+] [Compound 1-1-Na]
MIC ([1]; read-out: concentration for achieving a bacteriostatic effect where the CPM MIC is fixed at 8 μg/mL, strain FDA-CDC AR-BANK#0003): 0.125 µg/mL
MIC ([1]; read-out: concentration for achieving a bacteriostatic effect where the CPM MIC is fixed at 8 μg/mL, strain FDA-CDC AR-BANK#0076): 0.25 µg/mL
MIC ([1]; read-out: concentration for achieving a bacteriostatic effect where the CPM MIC is fixed at 8 μg/mL, strain FDA-CDC AR-BANK#0080): 2 µg/mL
MIC ([1]; read-out: concentration for achieving a bacteriostatic effect where the CPM MIC is fixed at 8 μg/mL, strain FDA-CDC AR-BANK#0126): ≤ 0.0156 µg/mL
MIC ([1]; read-out: concentration for achieving a bacteriostatic effect where the CPM MIC is fixed at 8 μg/mL, strain FDA-CDC AR-BANK#0158): 2 µg/mL
restoring to cefepime antibacterial activity against cefepime-resistant Klebsiella pneumoniae [1, 7]: significantly restore to cefepime antibacterial activity
MIC ([2]; Acinetobacter baumannii, read-out: concentration for achieving a bacteriostatic effect where the CPM MIC is fixed at 8 μg/mL): > 16 µg/mL
concentration for achieving a bacteriostatic effect where the CPM MIC is fixed at 8 μg/mL ([2]; strain FDA-CDC AR-BANK#0035): >16 µg/mL
concentration for achieving a bacteriostatic effect where the CPM MIC is fixed at 8 μg/mL ([2]; strain FDA-CDC AR-BANK#0078): >16 µg/mL
MIC ([3]; read-out: concentration for achieving a bacteriostatic effect where the CPM MIC is fixed at 8 μg/mL, strain FDA-CDC AR-BANK#0246, with CPM 8 μg/mL): > 16 µg/mL
MIC ([3]; read-out: concentration for achieving a bacteriostatic effect where the CPM MIC is fixed at 8 μg/mL, strain FDA-CDC AR-BANK#0439, with CPM 8 μg/mL): > 16 µg/mL
MIC ([3]; read-out: concentration for achieving a bacteriostatic effect where the CPM MIC is fixed at 8 μg/mL, strain FDA-CDC AR-BANK#0441, with CPM 8 μg/mL): 8 µg/mL
MIC ([3]; read-out: concentration for achieving a bacteriostatic effect where the CPM MIC is fixed at 8 μg/mL, strain FDA-CDC AR-BANK#0444, with CPM 8 μg/mL): 16 µg/mL
MIC ([4]; read-out: concentration for achieving a bacteriostatic effect where the CPM MIC is fixed at 8 μg/mL, strain FDA-CDC AR-BANK#0055): 1 µg/mL
MIC ([4]; read-out: concentration for achieving a bacteriostatic effect where the CPM MIC is fixed at 8 μg/mL, strain FDA-CDC AR-BANK#0114): 0.0312 µg/mL
MIC ([4]; read-out: concentration for achieving a bacteriostatic effect where the CPM MIC is fixed at 8 μg/mL, strain FDA-CDC AR-BANK#0370): 1 µg/mL
MIC ([4]; read-out: concentration for achieving a bacteriostatic effect where the CPM MIC is fixed at 8 μg/mL, strain FDA-CDC AR-BANK#0371): ≤ 0.0156 µg/mL
restoring to cefepime antibacterial activity against cefepime-resistant Escherichia coli [4, 7]: significantly restore to cefepime antibacterial activity
t½z ([5]; 10 mg/kg): 115 min
t½z ([5]; 100 mg/kg): 178 min
AUC(0-t) ([5]; 10 mg/kg): 211 µg·h/mL
AUC(0-inf) ([5]; 10 mg/kg): 213 µg·h/mL
Cmax ([5]; 10 mg/kg): 146 µg/mL
Tmax ([5]; 10 mg/kg): 4.98 min
AUC(0-t) ([5]; 100 mg/kg): 1400 µg·h/mL
AUC(0-inf) ([5]; 100 mg/kg): 1540 µg·h/mL
Cmax ([5]; 100 mg/kg): 607 µg/mL
Tmax ([5]; 100 mg/kg): 4.98 min
MIC ([6]; ATCCBAA1705, read-out: MIC, single substance (1-1-Na, QPX7728, CPM), strain ATCC BAA-1705, KPC-2, TEM, SHV, Class A): > 128 µg/mL
MIC ([6]; ATCCBAA1898, read-out: MIC, single substance (1-1-Na, QPX7728, CPM), strain ATCC BAA-1898, KPC-2, Class A): > 128 µg/mL
MIC ([6]; ATCCBAA1899, read-out: MIC, single substance (1-1-Na, QPX7728, CPM), strain ATCC BAA-1899, KPC-2, Class A): 64 µg/mL
MIC ([6]; ATCCBAA2343, read-out: MIC, single substance (1-1-Na, QPX7728, CPM), strain ATCC BAA-2343, KPC, Class A): > 128 µg/mL
MIC ([6]; ATCCBAA2470, read-out: MIC, single substance (1-1-Na, QPX7728, CPM), strain ATCC BAA-2470, NDM-1, Class B): 64 µg/mL
MIC ([6]; read-out: MIC, single substance (1-1-Na, QPX7728, CPM), strain ARLG-1127 (Urine), KPC, KPC-3, TEM, TEM-1, Class A): > 128 µg/mL
MIC ([6]; read-out: MIC, single substance (1-1-Na, QPX7728, CPM), strain ARLG-1195, CTM-1 group, SHV, NDM, Class A, B): > 128 µg/mL
MIC ([6]; read-out: MIC, single substance (1-1-Na, QPX7728, CPM), strain ARLG-1196, CTM-1 group, SHV, NDM, TEM, Class A, B): 128 µg/mL
MIC, Cefepime + compound (8 ug/ml) ([6]; strain ARLG-1127 (Urine), KPC, KPC-3, TEM, TEM-1, Class A): 0.25 µg/mL
MIC, Cefepime + compound (8 ug/ml) ([6]; strain ARLG-1195, CTM-1 group, SHV, NDM, Class A, B): ≤0.125 µg/mL
MIC, Cefepime + compound (8 ug/ml) ([6]; strain ARLG-1196, CTM-1 group, SHV, NDM, TEM, Class A, B): ≤0.125 µg/mL
MIC, Cefepime + compound (8 ug/ml) ([6]; strain ATCC BAA-1705, KPC-2, TEM, SHV, Class A): <0.125 µg/mL
MIC, Cefepime + compound (8 ug/ml) ([6]; strain ATCC BAA-1898, KPC-2, Class A): <0.125 µg/mL
MIC, Cefepime + compound (8 ug/ml) ([6]; strain ATCC BAA-1899, KPC-2, Class A): ≤0.125 µg/mL
MIC, Cefepime + compound (8 ug/ml) ([6]; strain ATCC BAA-2343, KPC, Class A): 0.25 µg/mL
MIC, Cefepime + compound (8 ug/ml) ([6]; strain ATCC BAA-2470, NDM-1, Class B): ≤0.125 µg/mL

From patent US20240209004A1, “BORIC ACID DERIVATIVE ACTING AS Beta-LACTAMASE INHIBITOR” (TUOJIE BIOTECH (SHANGHAI) CO., LTD., priority 2021, published 2024)
